Like-named read-outs stand apart in the source and are kept apart here.
Legend:
hACE2 receptor = target: T1, hACE2 receptor (Homo sapiens, UniProt Q9BYF1); format: binding; settings: for Binging with ACE2 (% of control ± SD): Table 3
T1 construct: purchased GenScript

[1] = target: T2, RBD of SARS-CoV-2 spike protein binding to hACE2 receptor (Severe acute respiratory syndrome coronavirus 2, UniProt P0DTC2); test: biochemical
T2 construct: purchased GenScript

[2] = test system: SARS-CoV-2 spike protein pseudo-typed virions; format: cell-based
[3] = test system: SARS-CoV-2 spike protein pseudo-typed virions; format: cell-based; remark: listed apart in the source

T1 sequence (Q9BYF1 18-740): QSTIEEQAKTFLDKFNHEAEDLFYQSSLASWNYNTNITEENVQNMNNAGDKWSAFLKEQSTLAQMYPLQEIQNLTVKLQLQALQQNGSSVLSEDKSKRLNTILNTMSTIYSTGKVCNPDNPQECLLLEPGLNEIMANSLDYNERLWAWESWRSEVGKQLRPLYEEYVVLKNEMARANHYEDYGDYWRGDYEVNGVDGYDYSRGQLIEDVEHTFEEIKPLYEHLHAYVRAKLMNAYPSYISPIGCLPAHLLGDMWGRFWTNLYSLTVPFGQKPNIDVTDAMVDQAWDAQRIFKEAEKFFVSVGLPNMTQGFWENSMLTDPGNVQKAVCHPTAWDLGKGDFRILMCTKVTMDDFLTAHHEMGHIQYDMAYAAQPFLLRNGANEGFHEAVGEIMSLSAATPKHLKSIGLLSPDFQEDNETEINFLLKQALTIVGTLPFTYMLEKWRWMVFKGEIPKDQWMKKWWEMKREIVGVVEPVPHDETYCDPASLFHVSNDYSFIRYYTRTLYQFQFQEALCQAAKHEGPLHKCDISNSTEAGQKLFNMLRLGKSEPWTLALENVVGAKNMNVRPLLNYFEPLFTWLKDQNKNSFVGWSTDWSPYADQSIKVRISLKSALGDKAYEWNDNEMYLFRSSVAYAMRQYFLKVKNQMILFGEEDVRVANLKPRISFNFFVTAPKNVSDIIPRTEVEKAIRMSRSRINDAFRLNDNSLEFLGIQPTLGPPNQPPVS

| Compound | Binging with ACE2 (% of control ± SD) (hACE2 receptor; tested at 0.1 mg/ml) | also measured |
| --- | --- | --- |
| O=C1O[C@H]2[C@@H]3OC(=O)c4cc(O)c(O)c(O)c4-c4c(O)c(O)c5oc(=O)c6c(c(O)c(O)c7oc(=O)c4c5c76)-c4c(cc(O)c(O)c4O)C(=O)OC[C@H]3OC(O)[C@@H]2OC(=O)c2cc(O)c(O)c(O)c2-c2c1cc(O)c(O)c2O (mixture of isomers) [Punicalagin] | 5.4 ± 2.3 % of control |  |
| C=C1CC[C@@H]2[C@](C)(CO)[C@H](O)CC[C@@]2(C)[C@@H]1C/C=C1/C(=O)OC[C@H]1O [Andrographolide] |  | Binding to RBD (% of control ± DS) [1]: 22.1 ± 2.5 % of control; Binging to ACE2 (% of control ± DS) (hACE2 receptor; Table 4, tested at 0.1 mg/ml): 5.6 ± 2.4 % of control |
| O=c1cc(-c2ccc(O)cc2)oc2cc(O)cc(O)c12 [Apigenin] | 8.3 ± 1.9 % of control |  |
| O=c1cc(-c2ccccc2)oc2cc(O)c(O)c(O)c12 [Baicalein] | 7.4 ± 1.4 % of control |  |
| O=C(O)[C@H]1O[C@@H](Oc2cc3oc(-c4ccccc4)cc(=O)c3c(O)c2O)[C@H](O)[C@@H](O)[C@@H]1O [Baicalin] | 4.9 ± 1.9 % of control |  |
| COc1ccc2cc3[n+](cc2c1OC)CCc1cc2c(cc1-3)OCO2 [Berberine] | 9.4 ± 2.4 % of control |  |
| Oc1ccc2c(c1)OC[C@]1(O)Cc3cc(O)c(O)cc3[C@H]21 [Brazilin] | 4.6 ± 2.2 % of control | concentration from which inhibition of transduction is statistically significant [2]: 10 µg/mL; inhibition of pseudo-typed virion binding to hACE2/A549 (in words) [3]: similarly inhibited binding; affinity in binding to the RBD-spike protein of SARS-CoV-2 (in words) [1]: exhibited the highest affinity; inhibition at 100 µg/mL ([1]; 100 μg/ml, read-out: efficacy in inhibiting RBD binding to hACE2): 100%; binding to the ACE2 receptor itself (in words) (hACE2 receptor): neither brazilin, nor theaflavin-3,3′-digallate displayed binding affinity |
| C=C(C)[C@@H]1CCC(C)=C[C@H]1c1c(O)cc(CCCCC)cc1O [Cannabidiol, reference compound] | 5.8 ± 2.0 % of control |  |
| CC(C)c1cc2c(c(O)c1O)[C@@]1(C(=O)O)CCCC(C)(C)[C@@H]1CC2 [Carnosic acid] | 6.9 ± 4.1 % of control |  |
| O[C@H]1[C@H](O)[C@@H](O)CN2CC[C@H](O)[C@H]12 [Castanospermine] | 5.5 ± 3.1 % of control |  |
| O=C(/C=C/c1ccc(O)c(O)c1)O[C@@H]1C[C@](O)(C(=O)O)C[C@@H](O)[C@H]1O [Chlorogenic acid] | 4.7 ± 1.6 % of control |  |
| O=c1c(O)c(-c2ccc(O)c(O)c2)oc2cc(O)ccc12 [Fisetin] | 6.0 ± 2.4 % of control |  |
| O=C(O)c1cc(O)c(O)c(O)c1 [Gallic acid] | 6.5 ± 1.3 % of control |  |
| O=c1c(-c2ccc(O)cc2)coc2cc(O)cc(O)c12 [Genistein] | 9.4 ± 2.7 % of control |  |
| CC1(C)[C@@H](O[C@H]2O[C@H](C(=O)O)[C@@H](O)[C@H](O)[C@H]2O[C@@H]2O[C@H](C(=O)O)[C@@H](O)[C@H](O)[C@H]2O)CC[C@]2(C)[C@H]3C(=O)C=C4[C@@H]5C[C@@](C)(C(=O)O)CC[C@]5(C)CC[C@@]4(C)[C@]3(C)CC[C@@H]12 [Glycyrrhizic acid] |  | Binging to ACE2 (% of control ± DS) (hACE2 receptor; Table 4, tested at 0.1 mg/ml): 10.1 ± 2.8 % of control |
| COc1ccc([C@@H]2CC(=O)c3c(O)cc(O)cc3O2)cc1O [Hesperetin] | 4.9 ± 2.7 % of control |  |
| COc1c(O)cc2oc(-c3ccc(O)cc3)cc(=O)c2c1O [Hispidulin] | 7.4 ± 2.1 % of control |  |
| O=c1c(O)c(-c2ccc(O)cc2)oc2cc(O)cc(O)c12 [Kaempferol] | 6.2 ± 2.5 % of control |  |
| O=c1cc(-c2ccc(O)c(O)c2)oc2cc(O)cc(O)c12 [Luteolin] | 4.8 ± 1.6 % of control |  |
| O=C(O)CC(O)C(=O)O (centres unmarked) [Malic acid] | 5.8 ± 1.4 % of control |  |
| O=c1c(O)c(-c2ccc(O)cc2O)oc2cc(O)cc(O)c12 [Morin] | 5.6 ± 3.1 % of control |  |
| O=c1c(O)c(-c2cc(O)c(O)c(O)c2)oc2cc(O)cc(O)c12 [Myricetin] | 5.6 ± 2.1 % of control |  |
| O=C1C[C@@H](c2ccc(O)cc2)Oc2cc(O)cc(O)c21 [Naringenin] | 8.3 ± 1.6 % of control | Binding with RBD (% of control ± SD) [1]: 20 ± 5.1 % of control |
| C[C@@H]1O[C@@H](O[C@H]2[C@H](Oc3cc(O)c4c(c3)O[C@H](c3ccc(O)cc3)CC4=O)O[C@H](CO)[C@@H](O)[C@@H]2O)[C@H](O)[C@H](O)[C@H]1O [Naringin] | 3.7 ± 1.1 % of control |  |
| COc1ccc(Cc2nccc3cc(OC)c(OC)cc23)cc1OC [Papaverine, reference compound] | 6.5 ± 3.7 % of control |  |

| Compound | Binging with ACE2 (% of control ± SD) (hACE2 receptor; tested at 0.1 mg/ml) | also measured |
| --- | --- | --- |
| Oc1cc(O)cc(O)c1 [Phloroglucinol] | 5.9 ± 3.4 % of control |  |
| COc1cc(/C=C/c2ccc(O)cc2)cc(OC)c1 [Pterostilbene] | 9.4 ± 2.5 % of control |  |
| O=c1c(O)c(-c2ccc(O)c(O)c2)oc2cc(O)cc(O)c12 [Quercetin] | 7.8 ± 3.3 % of control |  |
| O=C(/C=C/c1ccc(O)c(O)c1)O[C@H](Cc1ccc(O)c(O)c1)C(=O)O [Rosmarinic acid] | 7.9 ± 1.8 % of control |  |
| C[C@@H]1O[C@@H](OC[C@H]2O[C@@H](Oc3c(-c4ccc(O)c(O)c4)oc4cc(O)cc(O)c4c3=O)[C@H](O)[C@@H](O)[C@@H]2O)[C@H](O)[C@H](O)[C@H]1O [Rutin] | 4.8 ± 2.0 % of control |  |
| O=C(O)[C@H]1O[C@@H](Oc2cc3oc(-c4ccc(O)cc4)cc(=O)c3c(O)c2O)[C@H](O)[C@@H](O)[C@@H]1O [Scutellarin] | 7.5 ± 1.7 % of control |  |
| O=C(OC[C@H]1O[C@@H](OC(=O)c2cc(O)c(O)c(OC(=O)c3cc(O)c(O)c(O)c3)c2)[C@H](OC(=O)c2cc(O)c(O)c(OC(=O)c3cc(O)c(O)c(O)c3)c2)[C@@H](OC(=O)c2cc(O)c(O)c(OC(=O)c3cc(O)c(O)c(O)c3)c2)[C@@H]1OC(=O)c1cc(O)c(O)c(OC(=O)c2cc(O)c(O)c(O)c2)c1)c1cc(O)c(O)c(OC(=O)c2cc(O)c(O)c(O)c2)c1 [Tannic acid] | 7.2 ± 2.3 % of control |  |
| O=c1c(O)cc([C@H]2Oc3cc(O)cc(O)c3C[C@H]2O)cc2c([C@H]3Oc4cc(O)cc(O)c4C[C@H]3O)cc(O)c(O)c12 [Theafalvin] |  | Binding to RBD (% of control ± DS) [1]: 27.3 ± 1.4 % of control; Binging to ACE2 (% of control ± DS) (hACE2 receptor; Table 4, tested at 0.1 mg/ml): 7.9 ± 1.9 % of control |
| Oc1ccc(/C=C/c2cc(O)cc(O)c2)cc1 [Trans-resveratrol] | 5.5 ± 2.4 % of control |  |
| CC(=O)c1c(O)c(C)c(O)c2c1OC1=CC(=O)C(C(C)=O)C(=O)C12C (centres unmarked) [Usnic acid] | 5.7 ± 1.7 % of control |  |
| (+)-epigallocatechin gallate |  | Binding to RBD (% of control ± DS) [1]: 87.5 ± 6.8 % of control; Binging to ACE2 (% of control ± DS) (hACE2 receptor; Table 4, tested at 0.1 mg/ml): 5.9 ± 2.0 % of control |
| (+)-gallocatechin |  | Binding to RBD (% of control ± DS) [1]: 69.5 ± 2.8 % of control; Binging to ACE2 (% of control ± DS) (hACE2 receptor; Table 4, tested at 0.1 mg/ml): 5.7 ± 1.6 % of control |
| (−)-catechin gallate |  | Binding to RBD (% of control ± DS) [1]: 37.4 ± 4.7 % of control; Binging to ACE2 (% of control ± DS) (hACE2 receptor; Table 4, tested at 0.1 mg/ml): 8.6 ± 1.5 % of control |
| (−)-gallocatechin |  | Binding to RBD (% of control ± DS) [1]: 73.5 ± 6.7 % of control; Binging to ACE2 (% of control ± DS) (hACE2 receptor; Table 4, tested at 0.1 mg/ml): 3.9 ± 2.3 % of control |
| (−)-gallocatechin gallate |  | Binding to RBD (% of control ± DS) [1]: 75.4 ± 5.6 % of control; Binging to ACE2 (% of control ± DS) (hACE2 receptor; Table 4, tested at 0.1 mg/ml): 7.5 ± 1.7 % of control |
| D-limonene | 6.4 ± 1.5 % of control | Binding with RBD (% of control ± SD) [1]: 27.2 ± 6.4 % of control |
| Hesperidin | 8.3 ± 2.3 % of control | Binding with RBD (% of control ± SD) [1]: 90.3 ± 3.8 % of control |
| L-sulforaphane |  | Binding to RBD (% of control ± DS) [1]: 30.2 ± 3.6 % of control; Binging to ACE2 (% of control ± DS) (hACE2 receptor): 6.7 ± 1.5 % of control |
| Palmatine | 8.5 ± 2.7 % of control | Binding with RBD (% of control ± SD) [1]: 40.4 ± 6.1 % of control |
| Procyanidin B2 | 5.8 ± 2.7 % of control | Binding with RBD (% of control ± SD) [1]: 31.1 ± 3.6 % of control |
| Procyanidin B3 | 7.8 ± 2.7 % of control | Binding with RBD (% of control ± SD) [1]: 32.3 ± 3.7 % of control |
| Schisandrin | 5.1 ± 2.7 % of control | Binding with RBD (% of control ± SD) [1]: 22.4 ± 3.3 % of control |
| Theaflavine-3′3-digallate |  | concentration from which inhibition of transduction is statistically significant [2]: 10 µg/mL; inhibition of pseudo-typed virion binding to hACE2/A549 (in words) [3]: similarly inhibited binding |
| Urolithin A | 8.8 ± 1.6 % of control | Binding with RBD (% of control ± SD) [1]: 31.1 ± 4.6 % of control |

Source: US20220304976A1, “Method of simultaneously treating viral disease caused coronavirus, its variants and mutants using a pharmaceutical micronutrient composition” (priority 2021, published 2022)
